This note sets out measurements from patent US9656981B2, “Peripherally-acting cannabinoid receptor agonists for chronic pain” (The Regents of the University of California, priority 2012, dated 2017).

The structures appear in SMILES notation. Entries after “also recorded” stand apart in the source; their conditions may differ. Where two headings read alike, the source gives them in different places.

In one data set the target is CB1R (Homo sapiens, UniProt P21554). The experiment in a line: CB1R radioligand displacement binding assay (CP55940 radioligand). How it is done:
Heterologous competition binding assays were performed to calculate receptor affinities. Unlabeled SR141716 or SR144528 were used as appropriate controls for non-specific binding (NSB) in the assay. Calculation of the equilibrium dissociation constant (Ki) was performed using the Cheng-Prusoff equation.
Background: In a radioligand displacement assay an active substance lowers the binding of a labelled ligand.

The target in another data set is human CB1R (hCB1R) (Homo sapiens, UniProt P21554). As to the kind of experiment: human CB1R (hCB1R) calcium flux assay. Format: cell-based. To be noted: Table 1; read-out: Ca Flux % Emax. From the text: Compounds were first screened for: a) CB1R and CB2R binding, b) CB1R agonist activity using the human CB1R (hCB1R) calcium flux assay, and c) BBB permeability using the Madin-Darby canine kidney (MDCK-MDR1) cell line assay.
The calcium 3 dye assays were run according to manufacturer's specifications (http://www.moleculardevices.com/Products/Assay-Kits/GPCRs/FLIPR-Calcium.html) and as reported in our previous publications^112,113. Briefly, wells of black clear-bottom 96-well tissue culture-treated plates are seeded with 20,000 cells the afternoon before assay. The day of assay, the cells are incubated with the Ca^2+ indicator dye for 1 hr @ 37° C. For antagonist assays, the test compound is preincubated with the cells during the last 10 min of the dye incubation. Basal or unstimulated fluorescence intensity is recorded in the FlexStation @ 37° C. for 13 sec followed by the addition of test compound or CP 55,940 (depending on the assay endpoint). Fluorescence intensity is recorded for an additional 47 sec. The effect of test compound in each well is determined by subtracting the minimum from the maximum fluorescence during the 47-sec recording period.

In data set [1] the test system is rats. As to the kind of experiment: Catalepsy (ring) test of the tetrad. Format: in vivo, rat. How it is done:
Catalepsy (ring) test. Catalepsy was determined with a ring immobility test^154, modified for rats^139, 153. Rats are placed with their forepaws on a horizontal metal ring (12 cm diameter) at a height that allows their hindpaws to just touch the bench surface. Immobility is recorded as the time for the rat to move off the ring with a 100 s cutoff. Rats are tested before vehicle/drug injections and again at various times after injection.

In data set [2] the test system is rats. The experiment in a line: Tail-flick test of the tetrad. To be noted: 0.3 mg/kg, intraperitoneal. The class given is in vivo, rat. From the text:
A modified Hargreaves apparatus (Model 390, IITC Instr.) is used to measure tail-flick latency (TFL). Radiant heat is directed to a point 3 cm from the tail tip and the TFL observed and timed with a photo cell counter. The intensity of the radiant heat is adjusted for a baseline TFL of approximately 5-7 seconds for naïve rats, with a 25 s cutoff set to avoid tissue damage (see FIG. 3).
For orientation: Hot-plate and tail-flick tests time the reaction to a heat stimulus.

Chain of CB1R (P21554 whole entry): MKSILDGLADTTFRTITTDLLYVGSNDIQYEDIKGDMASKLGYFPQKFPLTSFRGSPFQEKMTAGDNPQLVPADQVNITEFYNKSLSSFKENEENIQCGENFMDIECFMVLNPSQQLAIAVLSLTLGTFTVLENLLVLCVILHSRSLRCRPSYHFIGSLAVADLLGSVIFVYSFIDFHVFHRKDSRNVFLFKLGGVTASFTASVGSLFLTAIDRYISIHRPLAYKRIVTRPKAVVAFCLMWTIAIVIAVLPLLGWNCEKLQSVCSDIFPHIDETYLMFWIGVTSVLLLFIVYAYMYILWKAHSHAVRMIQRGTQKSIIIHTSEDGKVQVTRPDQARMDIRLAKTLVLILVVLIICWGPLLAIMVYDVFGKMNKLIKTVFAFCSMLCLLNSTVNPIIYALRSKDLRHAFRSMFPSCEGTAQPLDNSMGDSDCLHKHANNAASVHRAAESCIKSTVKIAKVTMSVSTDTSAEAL
Chain of human CB1R (hCB1R) (P21554 whole entry): as above

Turning to `CCCc1ccc(/C=C2\C=C(CCN3CCOCC3)c3ccccc32)c2ccccc12` [Compound 9, 4-{2-[(1E)-1-[(4-propylnaphthalen-1-yl)methylidene]-1H-inden-3-yl]ethyl} morpholine], the Ki (in general, the equilibrium dissociation constant of an inhibitor or competing ligand from its target) at CB1R came out at 1 nM; at CB1R (read-out: CB1R binding affinity (Ki)) it was 1.18 nM. Further, at human CB1R (hCB1R), the maximal effect (Emax) (usually the greatest response seen or fitted, relative to the assay's reference) was determined as 108%. In the data set with rats [1] (0.3 mg/kg, intraperitoneal, listed as 13339-145-35), the “effect in the catalepsy assay” value is “no effect; also recorded: complete lack of effects”. Also, the “Catalepsy % change from pre-drug (0.3 mg/kg) at 1-3 hrs” value with rats [1] (1-3 hrs) came out at 0%. Besides, in the data set on rats [2], the “effect in the tail-flick assay” value is “small effect”.
